Data: patent US20250031744A1, “Methods and Compositions for Managing Blood Glucose Levels Using Rare Sugars” (DiaVita Therapeutics LLC, priority 2023, published 2025)

Experiments:
[1] = system: subject with type 1 diabetes; experiment: Pilot open-label observational study with continuous glucose monitoring, treatment three times per day before meals (Example 1); type: in vivo, human; conditions: 7.5 g tagatose prior to meals without allulose or ginger
Protocol: Example 1. A pilot, open-label observational study was conducted on a subject with type 1 diabetes. The subject used a Dexcom® continuous glucose monitoring system which recorded blood sugar levels every five minutes. The subject first completed an extensive control period for roughly two months to obtain background blood sugar levels.
Subsequently, the subject was administered numerous treatment protocols separated by washout periods of at least 7 days (typically two weeks). […] The subject completed treatments with the following active ingredients: (i) Experimental Treatment 1: tagatose plus allulose plus ginger, (ii) Experimental Treatment 2: tagatose plus ginger, (iii) Experimental Treatment 3: allulose plus ginger, and (iv) Experimental Treatment 4: a second treatment course comprising tagatose plus allulose plus ginger. […]
Blood sugar levels were recorded every five minutes using the continuous glucose monitoring system. Primary endpoints were (i) average blood sugar level over the course of treatment, (ii) number of five minute periods with blood sugar level over 180 mg/dL (“time with high blood sugar”) and (iii) “hyperglycemia index”, calculated as the fraction of time with blood sugar level over 250 mg/dL multiplied by the average magnitude of the these hyperglycemic periods (defined as the difference in mg/dL between the recorded blood sugar level and 250). […]

subjects = experiment: Experimental treatment with tagatose alone, gastrointestinal side effects; type: in vivo, human; conditions: no co-administration of allulose or ginger; treatment stopped after a couple of days
Description: Both tagatose and allulose can give rise to significant gastrointestinal side effects (e.g., bloating, flatulence, abdominal pain, diarrhea). In our personal experience and anecdotally, the GI side effects are more significant for tagatose than allulose.

O=C(CO)[C@@H](O)[C@@H](O)[C@H](O)CO [tagatose]
reason treatment was not completed [1]: GI discomfort | GI side effects of tagatose alone (subjects): unpleasant GI side effects reported by a majority of subjects
